Results published in PMC3584069, “The Interaction of the Chemotherapeutic Drug Chlorambucil with Human Glutathione Transferase A1-1: Kinetic and Structural Analysis” (PLoS ONE, 2013).

Columns and labels:
[1] = target: T1, human glutathione transferase A1-1 (hGSTA1-1) (Homo sapiens, UniProt P08263); test: X-ray crystal structure (GSH moiety of the GSH–CBL adduct); initial velocity kinetics with GSH as variable substrate; assay type: binding
T1 construct: gene GSTA1; recombinant purified hGSTA1-1 homodimer
T1 sequence (P08263 2-222): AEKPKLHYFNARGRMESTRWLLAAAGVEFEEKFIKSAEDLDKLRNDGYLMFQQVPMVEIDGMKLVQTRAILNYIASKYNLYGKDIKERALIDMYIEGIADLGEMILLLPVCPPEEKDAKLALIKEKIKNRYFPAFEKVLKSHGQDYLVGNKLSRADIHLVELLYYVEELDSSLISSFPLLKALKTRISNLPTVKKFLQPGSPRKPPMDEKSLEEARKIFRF

[2] = target: T1, human glutathione transferase A1-1 (hGSTA1-1); test: irreversible enzyme inactivation kinetics in absence of GSH (apparent KD, fast phase), MALDI-TOF MS of CBL-modified subunit, DTNB cysteine titration; also a substrate in presence of GSH; assay type: biochemical; settings: read-out: Kd
[3] = target: the molecule itself; test: crystal structure; hGSTA1-1 (19.7 mg/mL) incubated with CBL at 1:3 molar ratio; 17-20% PEG 2000, 0.1 M Tris-HCl pH 7.5, 0.1 mM beta-mercaptoethanol, vapor diffusion at 20°C; 2.1 Å; monomers A and B in the model

For `N[C@@H](CCC(=O)N[C@@H](CS)C(=O)NCC(=O)O)C(=O)O` [GSH], the “X-ray crystal structure (GSH moiety of the GSH-CBL adduct); initial velocity kin” value [1] was “Difference Fourier electron density maps indicate the presence of a GSH moiety in the G-site of the enzyme”.

`O=C(O)CCCc1ccc(N(CCCl)CCCl)cc1` [chlorambucil] showed a KI (inactivation) [2] of 2950 ± 500 µM.

B1: human glutathione transferase A1-1 (enzyme)
chain: KPKLHYFNARGRMESTRWLLAAAGVEFEEKFIKSAEDLDKLRNDGYLMFQQVPMVEIDGMKLVQTRAILNYIASKYNLYGKDIKERALIDMYIEGIADLGEMILLLPVCPPEEKDAKLALIKEKIKNRYFPAFEKVLKSHGQDYLVGNKLSRADIHLVELLYYVEELDSSLISSFPLLKALKTRISNLPTVKKFLQPGSPRKPPMDEKSLEEARKIF
notes: glutathione transferase A1 subunit, human; the crystal model holds residues 4-220 (monomer A) and 3-221 (monomer B, without 112-115); Homodimer; MALDI-TOF of the unmodified subunit: m/z 25,482; also called hGSTA1-1; GSTA1-1; source: recombinant
B1: binds [3].
